Reference: patent US20240109864A1, “SUBSTITUTED PYRAZOLYL PIPERIDINE CARBOXYLIC ACIDS” (BAYER AKTIENGESELLSCHAFT, priority 2020, published 2024)
Structures can show the parent of a compound that is named as a salt.

Target: T1, recombinant guanylate cyclase reporter cell line (Rattus norvegicus, UniProt P20595)
T1 construct: expressed in transfected cells
T1 sequence (P20595 1-619): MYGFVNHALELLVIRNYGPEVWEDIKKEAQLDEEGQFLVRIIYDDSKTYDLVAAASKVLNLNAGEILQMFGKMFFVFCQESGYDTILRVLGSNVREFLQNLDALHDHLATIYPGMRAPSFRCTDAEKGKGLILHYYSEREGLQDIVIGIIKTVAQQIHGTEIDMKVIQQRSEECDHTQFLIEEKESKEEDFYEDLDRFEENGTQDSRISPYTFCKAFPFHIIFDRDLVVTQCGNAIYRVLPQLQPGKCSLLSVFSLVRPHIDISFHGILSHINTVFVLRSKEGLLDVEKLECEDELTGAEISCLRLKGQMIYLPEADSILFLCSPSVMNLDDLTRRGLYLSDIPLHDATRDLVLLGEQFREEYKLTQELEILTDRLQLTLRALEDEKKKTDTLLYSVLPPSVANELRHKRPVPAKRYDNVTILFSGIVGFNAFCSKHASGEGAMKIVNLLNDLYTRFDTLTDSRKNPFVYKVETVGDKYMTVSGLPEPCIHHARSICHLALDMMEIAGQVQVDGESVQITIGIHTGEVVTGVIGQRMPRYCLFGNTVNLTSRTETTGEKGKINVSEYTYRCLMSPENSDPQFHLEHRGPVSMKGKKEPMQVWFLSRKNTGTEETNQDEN
T1 sequence (P19686 1-690 partner): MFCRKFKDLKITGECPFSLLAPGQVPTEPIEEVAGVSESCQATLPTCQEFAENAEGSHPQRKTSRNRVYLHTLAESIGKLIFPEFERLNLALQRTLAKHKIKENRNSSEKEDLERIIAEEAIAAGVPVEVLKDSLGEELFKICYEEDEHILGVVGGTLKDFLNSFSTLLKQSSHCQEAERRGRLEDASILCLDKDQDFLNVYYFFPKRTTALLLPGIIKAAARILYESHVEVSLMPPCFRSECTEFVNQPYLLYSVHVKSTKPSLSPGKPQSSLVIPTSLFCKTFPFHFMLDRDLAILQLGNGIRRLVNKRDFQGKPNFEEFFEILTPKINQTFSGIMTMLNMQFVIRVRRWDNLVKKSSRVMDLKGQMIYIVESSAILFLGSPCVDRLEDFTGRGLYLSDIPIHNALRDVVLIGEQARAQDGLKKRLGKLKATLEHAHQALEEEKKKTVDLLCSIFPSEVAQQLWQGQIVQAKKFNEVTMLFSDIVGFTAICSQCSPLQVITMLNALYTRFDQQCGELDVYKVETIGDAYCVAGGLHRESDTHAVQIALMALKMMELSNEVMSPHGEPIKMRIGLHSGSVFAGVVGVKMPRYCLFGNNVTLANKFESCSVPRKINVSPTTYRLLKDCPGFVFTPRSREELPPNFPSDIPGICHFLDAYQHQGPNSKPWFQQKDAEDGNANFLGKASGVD
Assay: Effect on a recombinant guanylate cyclase reporter cell line
Assay type: cell-based
Details: in some cases mean values from individual determinations; for MEC: MEC = minimum effective concentration; for EC50: half maximal effective concentration
Procedure: The cellular activity of the compounds according to the invention was determined using a recombinant guanylate cyclase reporter cell line, as described in F. Wunder et al., Anal. Biochem. 339, 104-112 (2005).

Row | SMILES | MEC [nM] | EC50 [nM]
1 | CC(C)C(=O)N1CCN(c2ccc(-c3ccc(Cl)cc3N3CCCC(n4ncc(C(=O)O)c4C(F)(F)F)C3)cc2)CC1 (single isomer, unassigned) [Example 38, 1-[1-[5-Chloro-2-[4-[4-(2-methylpropanoyl)piperazin-1-yl]phenyl]phenyl]-3-piperidyl]-5-(trifluoromethyl)pyrazole-4-carboxylic acid] | 3.0 | 15.5
2 | CC(C)(F)C(=O)N1CCN(c2ccc(-c3ccc(Cl)cc3N3CCCC(n4ncc(C(=O)O)c4C(F)(F)F)C3)cc2)CC1 (single isomer, unassigned) [Example 39, 1-[1-[5-Chloro-2-[4-[4-(2-fluoro-2-methyl-propanoyl)piperazin-1-yl]phenyl]phenyl]-3-piperidyl]-5-(trifluoromethyl)pyrazole-4-carboxylic acid] | 10.0 | 59
3 | CCCC(=O)N1CCN(c2ccc(-c3ccc(Cl)cc3N3CCCC(n4ncc(C(=O)O)c4C(F)(F)F)C3)cc2)CC1 (single isomer, unassigned) [Example 40, 1-[1-[2-[4-(4-Butanoylpiperazin-1-yl)phenyl]-5-chloro-phenyl]-3-piperidyl]-5-(trifluoromethyl)pyrazole-4-carboxylic acid] | 3.0 | 19
4 | COCCC(=O)N1CCN(c2ccc(-c3ccc(Cl)cc3N3CCCC(n4ncc(C(=O)O)c4C(F)(F)F)C3)cc2)CC1 (single isomer, unassigned) [Example 41, 1-[1-[5-Chloro-2-[4-[4-(3-methoxypropanoyl)piperazin-1-yl]phenyl]phenyl]-3-piperidyl]-5-(trifluoromethyl)pyrazole-4-carboxylic acid] | 3.0 | 44
5 | O=C(O)c1cnn(C2CCCN(c3cc(Cl)ccc3-c3ccc(N4CCN(C(=O)C5CC5F)CC4)cc3)C2)c1C(F)(F)F (single isomer, unassigned) [Example 44, 1-[1-[5-Chloro-2-[4-[4-(2-fluorocyclopropanecarbonyl)piperazin-1-yl]phenyl]phenyl]-3-piperidyl]-5-(trifluoromethyl)pyrazole-4-carboxylic acid] | 10.0 | 34.5
6 | O=C(O)c1cnn(C2CCCN(c3cc(Cl)ccc3-c3ccc(N4CCN(C(=O)C5CC5(F)F)CC4)cc3)C2)c1C(F)(F)F (single isomer, unassigned) [Example 47, 1-[1-[5-Chloro-2-[4-[4-[2,2-difluorocyclopropanecarbonyl]piperazin-1-yl]phenyl]phenyl]-3-piperidyl]-5-(trifluoromethyl)pyrazole-4-carboxylic acid] | 3.0 | 17
7 | O=C(O)c1cnn(C2CCCN(c3cc(Cl)ccc3-c3ccc(N4CCN(C(=O)C5CC(F)(F)C5)CC4)cc3)C2)c1C(F)(F)F (single isomer, unassigned) [Example 50, 1-[1-[5-Chloro-2-[4-[4-(3,3-difluorocyclobutanecarbonyl)piperazin-1-yl]phenyl]phenyl]-3-piperidyl]-5-(trifluoromethyl)pyrazole-4-carboxylic acid] | 10.0 | 47.5
8 | CC(C)CC(=O)N1CCN(c2ccc(-c3ccc(Cl)cc3N3CCCC(n4ncc(C(=O)O)c4C(F)(F)F)C3)cc2)CC1 (single isomer, unassigned) [Example 52, 1-[1-[5-Chloro-2-[4-[4-(3-methylbutanoyl)piperazin-1-yl]phenyl]phenyl]-3-piperidyl]-5-(trifluoromethyl)pyrazole-4-carboxylic acid] | 10.0 | 31
9 | O=C(O)c1cnn(C2CCCN(c3cc(Cl)ccc3-c3ccc(N4CCN(C(=O)C5CC56CC6)CC4)cc3)C2)c1C(F)(F)F (single isomer, unassigned) [Example 53, 1-[1-{4-chloro-4′-[4-(spiro[2.2]pentane-1-carbonyl)piperazin-1-yl][1,1′-biphenyl]-2-yl}piperidin-3-yl]-5-(trifluoromethyl)-1H-pyrazole-4-carboxylic acid] | 10.0 | 22
10 | CC(C)OC(=O)N1CCN(c2ccc(-c3ccc(Cl)cc3N3CCCC(n4ncc(C(=O)O)c4C(F)(F)F)C3)cc2)CC1 (single isomer, unassigned) [Example 56, 1-[1-[5-Chloro-2-[4-(4-isopropoxycarbonylpiperazin-1-yl)phenyl]phenyl]-3-piperidyl]-5-(trifluoromethyl)pyrazole-4-carboxylic acid] | 3.0 | 18

The remaining lines, values ahead:

Row | MEC [nM] | EC50 [nM] | SMILES
11 | 1.0 | 4.2 | O=C(O)c1cnn(C2CCCN(c3cc(Cl)ccc3-c3ccc(N4CCN(C(=O)C5CC5)CC4)cc3)C2)c1C(F)(F)F (single isomer, unassigned) [Example 42, 1-[1-[5-Chloro-2-[4-[4-(cyclopropanecarbonyl)piperazin-1-yl]phenyl]phenyl]-3-piperidyl]-5-(trifluoromethyl)pyrazole-4-carboxylic acid]
12 | 1.0 | 15.1 | O=C(O)c1cnn(C2CCCN(c3cc(Cl)ccc3-c3ccc(N4CCN(C(=O)C5(F)CC5)CC4)cc3)C2)c1C(F)(F)F (single isomer, unassigned) [Example 43, 1-[1-[5-Chloro-2-[4-[4-(1-fluorocyclopropanecarbonyl)piperazin-1-yl]phenyl]phenyl]-3-piperidyl]-5-(trifluoromethyl)pyrazole-4-carboxylic acid]
13 | 3.0 | 14 | O=C(O)c1cnn(C2CCCN(c3cc(Cl)ccc3-c3ccc(N4CCN(C(=O)[C@H]5C[C@H]5F)CC4)cc3)C2)c1C(F)(F)F (single isomer, unassigned) [Example 45, hydrochloride]
14 | 3.0 | 14.5 | O=C(O)c1cnn(C2CCCN(c3cc(Cl)ccc3-c3ccc(N4CCN(C(=O)[C@@H]5C[C@@H]5F)CC4)cc3)C2)c1C(F)(F)F (single isomer, unassigned) [Example 46]
15 | 3.0 | 10.6 | O=C(O)c1cnn(C2CCCN(c3cc(Cl)ccc3-c3ccc(N4CCN(C(=O)[C@H]5CC5(F)F)CC4)cc3)C2)c1C(F)(F)F (single isomer, unassigned) [Example 48, 1-[1-[5-Chloro-2-[4-[4-[2,2-difluorocyclopropanecarbonyl]piperazin-1-yl]phenyl]phenyl]-3-piperidyl]-5-(trifluoromethyl)pyrazole-4-carboxylic acid]
16 | 1.0 | 3.5 | O=C(O)c1cnn(C2CCCN(c3cc(Cl)ccc3-c3ccc(N4CCN(C(=O)C5CCC5)CC4)cc3)C2)c1C(F)(F)F (single isomer, unassigned) [Example 49, 1-[1-[5-Chloro-2-[4-[4-(cyclobutanecarbonyl)piperazin-1-yl]phenyl]phenyl]-3-piperidyl]-5-(trifluoromethyl)pyrazole-4-carboxylic acid hydrochloride]
17 | 3.0 | 9.4 | O=C(O)c1cnn(C2CCCN(c3cc(Cl)ccc3-c3ccc(N4CCN(C(=O)C56CC(F)(C5)C6)CC4)cc3)C2)c1C(F)(F)F (single isomer, unassigned) [Example 51, 1-[1-[5-Chloro-2-[4-[4-(3-fluorobicyclo[1.1.1]pentane-1-carbonyl)piperazin-1-yl]phenyl]phenyl]-3-piperidyl]-5-(trifluoromethyl)pyrazole-4-carboxylic acid]
18 | 3.0 | 11.1 | COC(=O)N1CCN(c2ccc(-c3ccc(Cl)cc3N3CCCC(n4ncc(C(=O)O)c4C(F)(F)F)C3)cc2)CC1 (single isomer, unassigned) [Example 54, 1-[1-[5-Chloro-2-[4-(4-methoxycarbonylpiperazin-1-yl)phenyl]phenyl]-3-piperidyl]-5-(trifluoromethyl)pyrazole-4-carboxylic acid]
19 | 3.0 | 10.4 | CCOC(=O)N1CCN(c2ccc(-c3ccc(Cl)cc3N3CCCC(n4ncc(C(=O)O)c4C(F)(F)F)C3)cc2)CC1 (single isomer, unassigned) [Example 55, 1-[1-[5-Chloro-2-[4-(4-ethoxycarbonylpiperazin-1-yl)phenyl]phenyl]-3-piperidyl]-5-(trifluoromethyl)pyrazole-4-carboxylic acid]
